The target of series [1] is T1, pig cytochrome P450 CYP19 (133Ile) (Sus scrofa, UniProt P79430).
T1 construct: made in house
T1 sequence (P79430 1-503): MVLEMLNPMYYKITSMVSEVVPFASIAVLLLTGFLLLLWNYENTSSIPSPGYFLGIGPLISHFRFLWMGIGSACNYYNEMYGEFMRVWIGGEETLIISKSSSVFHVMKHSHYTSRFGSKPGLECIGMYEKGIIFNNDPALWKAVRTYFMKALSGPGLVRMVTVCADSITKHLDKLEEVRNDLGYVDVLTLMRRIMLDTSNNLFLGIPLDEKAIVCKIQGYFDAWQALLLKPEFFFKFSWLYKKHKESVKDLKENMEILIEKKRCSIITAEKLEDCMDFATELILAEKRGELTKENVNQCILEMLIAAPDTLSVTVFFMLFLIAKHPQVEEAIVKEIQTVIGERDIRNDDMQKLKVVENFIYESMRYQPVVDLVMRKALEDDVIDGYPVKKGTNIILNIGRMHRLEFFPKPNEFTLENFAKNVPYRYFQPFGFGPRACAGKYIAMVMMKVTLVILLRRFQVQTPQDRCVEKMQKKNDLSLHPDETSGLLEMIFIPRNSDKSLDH
The series can be described thus: Inhibition of pig cytochrome P450 CYP19 (133Ile), testosterone substrate, estradiol enzyme immunoassay. Type of series: biochemical. On the procedure: (§1) Purified anti-estradiol antibodies obtained using as the antigen a protein cross-linked using the 3rd position of estradiol were diluted in 50 mM carbonic acid buffer (pH 9.6) to a concentration of 1 μg/ml (antibody adsorption liquid), and 100 μL per well was poured into Corning Costar microtiter plates (polystyrene 96-well type). The surfaces were then sealed, and the plates left overnight at 4° C. The following day the antibody adsorption liquid was removed, and each well washed 3 times with 200 μL of 10 mM phosphoric acid buffer (pH 7.2, containing 150 mM NaCl). After washing, using 10 mM phosphoric acid buffer (pH 7.2, containing 150 mM NaCl: phosphoric acid buffer 1) as the base, each well was filled with 200 μL of a blocking solution containing 0.2% casein and 10% saccharose. After being filled with the blocking liquid the plates were left overnight at 4° C., and the following day the blocking liquid was removed and vacuum drying applied for 16 hours. The vacuum-dried plates were sealed in storage bags under reduced pressure, and stored at 4° C. prior to the following measurements.
(§2) A placental system expressing pig cytochrome P450 CYP19 was prepared according to the methods described in Mol. Endocrinol. Vol. 16, pp 1456-1468 (2002), and a mutation introduced replacing isoleucine 133 with methionine or alanine according to ordinary methods. […]

In series [2] the target is T2, human cytochrome P450 CYP19 (Homo sapiens, UniProt P11511).
T2 construct: purchased BD Science (Gentest)
T2 sequence (P11511 1-503): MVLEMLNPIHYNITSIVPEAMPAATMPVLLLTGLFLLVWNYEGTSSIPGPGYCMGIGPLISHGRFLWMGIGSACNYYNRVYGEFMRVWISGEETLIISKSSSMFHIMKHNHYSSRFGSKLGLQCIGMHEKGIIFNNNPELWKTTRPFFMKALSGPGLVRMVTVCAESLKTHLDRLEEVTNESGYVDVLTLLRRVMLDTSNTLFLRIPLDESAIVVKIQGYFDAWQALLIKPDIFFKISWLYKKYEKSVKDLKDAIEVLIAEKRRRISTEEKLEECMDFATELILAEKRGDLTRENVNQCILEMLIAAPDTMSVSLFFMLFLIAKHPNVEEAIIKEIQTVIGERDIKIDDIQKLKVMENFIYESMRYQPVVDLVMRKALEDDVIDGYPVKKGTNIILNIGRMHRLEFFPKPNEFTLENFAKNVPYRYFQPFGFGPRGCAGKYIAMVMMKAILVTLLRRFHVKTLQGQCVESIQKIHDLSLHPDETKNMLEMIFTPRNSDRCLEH
Kind of series: Inhibition of human cytochrome P450 CYP19 (aromatase), testosterone substrate, estradiol enzyme immunoassay. Type of series: biochemical. The note with it: 62.5 μM testosterone, 20 minutes at 37° C.; α-naphthoflavone 0-3.2 μM, aminoglutethimide 0-9 μM final concentration; FIG. 6, 7. The method, then: as §1, with “The” for “Purified anti-estradiol antibodies obtained using as the antigen a protein cross-linked using the 3rd position of estradiol were diluted in 50 mM carbonic acid buffer (pH 9.6) to a concentration of 1 μg/ml (antibody adsorption liquid), and 100 μL per well was poured into Corning Costar microtiter plates (polystyrene 96-well type). The”, “sucrose.” for “saccharose.”

Series [3] deals with T3, pig cytochrome P450 CYP19 (133Met) (Sus scrofa, UniProt P79430, I133M).
T3 construct: made in house
T3 sequence (P79430 1-503 I133M): T1 sequence (P79430 1-503) with I133M
The series can be described thus: Inhibition of pig cytochrome P450 CYP19 (133Met), testosterone substrate, estradiol enzyme immunoassay. Type of series: biochemical. To be noted: 62.5 μM testosterone; 0-3.2 μM final concentration; FIG. 16. The method, then: as §1, §2

Series [4] has as its target human cytochrome P450 CYP2C9 (359Ile) (Homo sapiens, UniProt P11712). The method, then: as §1, with “Purified anti-fluorescein” for “Purified anti-estradiol”, “the X” for “the 3rd”, “of fluorescein” for “of estradiol”, “diluted with” for “diluted in”, “10% sucrose.” for “10% saccharose.”
(§3) A system expressing human cytochrome P450 CYP2C9 was constructed according to the methods of Goldstein et al (Goldstein J. A. et al, Biochemistry Vol. 33 pp 1743-1752 (1994)). A single nucleotide mutation (A→C) replacing isoleucine at 359 position with leucine was then introduced by ordinary methods. Two types of enzyme preparations, human cytochrome P450 CYP2C9 (359Ile) and (359Leu), were prepared by methods described in the literature and used in the following experiment.
(§4) The two human cytochrome P450 CYP2C9 preparations were diluted with 100 mM phosphoric acid buffer (pH 7.2, containing 0.1% BSA: phosphoric acid buffer 2), and concentrations sequences prepared. […]

In series [5] the target is human cytochrome P450 CYP2C9 (359Leu) (Homo sapiens, UniProt P11712, I359L). The note with it: 30 μM dibenzylfluorescein; 0-1.2 μM final concentration; FIG. 20. The method, then: as §1, with “Purified anti-fluorescein” for “Purified anti-estradiol”, “the X” for “the 3rd”, “of fluorescein” for “of estradiol”, “diluted with” for “diluted in”, “10% sucrose.” for “10% saccharose.”
as §3, §4

Series [6] concerns Pseudomonas-derived 17β-hydroxysteroid dehydrogenase. Kind of series: Inhibition of 17β-hydroxysteroid dehydrogenase, estrone substrate, estradiol enzyme immunoassay. The class given is biochemical. To be noted: 0-20 μM final concentration, FIG. 8.

Experimental findings from patent publication US20040106216A1, “Method of measuring drug-metabolizing enzyme activity, method of evaluating inhibition of drug-metabolizing enzyme activity, and composition for these methods” (Toyo Boseki Kabushiki Kaisha, priority 2002, published 2004) are described below.

Substitutions are numbered along the chain they refer to.

Chain of human cytochrome P450 CYP2C9 (359Ile) (P11712 whole entry): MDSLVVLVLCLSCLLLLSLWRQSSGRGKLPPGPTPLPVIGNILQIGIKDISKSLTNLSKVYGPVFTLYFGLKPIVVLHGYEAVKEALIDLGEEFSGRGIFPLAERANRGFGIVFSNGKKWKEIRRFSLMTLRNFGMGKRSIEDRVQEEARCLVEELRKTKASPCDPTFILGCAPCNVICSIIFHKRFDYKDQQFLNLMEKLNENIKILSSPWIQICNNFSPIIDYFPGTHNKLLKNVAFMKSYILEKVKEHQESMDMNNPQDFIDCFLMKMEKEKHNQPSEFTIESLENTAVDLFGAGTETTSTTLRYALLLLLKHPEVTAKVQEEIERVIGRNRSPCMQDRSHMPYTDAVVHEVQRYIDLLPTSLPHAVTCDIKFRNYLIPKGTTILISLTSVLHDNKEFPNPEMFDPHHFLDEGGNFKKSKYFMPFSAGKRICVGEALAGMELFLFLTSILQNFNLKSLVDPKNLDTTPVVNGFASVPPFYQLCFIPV
Chain of human cytochrome P450 CYP2C9 (359Leu) (P11712 whole entry I359L): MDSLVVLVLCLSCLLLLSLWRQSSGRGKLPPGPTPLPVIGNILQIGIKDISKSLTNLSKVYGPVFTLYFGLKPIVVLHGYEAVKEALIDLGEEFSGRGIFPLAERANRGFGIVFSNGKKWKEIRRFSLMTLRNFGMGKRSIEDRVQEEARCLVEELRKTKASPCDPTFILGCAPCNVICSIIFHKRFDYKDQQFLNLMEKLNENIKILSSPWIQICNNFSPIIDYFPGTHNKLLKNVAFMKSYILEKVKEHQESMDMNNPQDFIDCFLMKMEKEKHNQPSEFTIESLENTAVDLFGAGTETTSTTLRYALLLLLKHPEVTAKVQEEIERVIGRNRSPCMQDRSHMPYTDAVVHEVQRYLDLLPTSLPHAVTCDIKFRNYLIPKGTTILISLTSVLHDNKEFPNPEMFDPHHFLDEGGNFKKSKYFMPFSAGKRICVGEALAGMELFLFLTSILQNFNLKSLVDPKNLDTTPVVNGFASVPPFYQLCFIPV

Consider `O=c1cc(-c2ccccc2)oc2c1ccc1ccccc12` [α-naphthoflavone], for which the “inhibition of pig cytochrome P450 CYP19 (133Ile) (concentration vs absorbance at 450 nm)” value in series [1] (62.5 μM testosterone, 0-3.2 μM final concentration, FIG. 15) is recorded as “the greater the inhibition of pig cytochrome P450 CYP19”. Moreover, the “difference in degree of inhibition between preparation (133Ile) and preparation (133Met)” value in series [1] (pig CYP19 (133Ile) versus (133Met), FIGS. 15 and 16) was “the degree of inhibition differed greatly”. Besides, the “inhibition of cytochrome P450 CYP19 (relationship between solution concentration and absorbance at 450 nm)” value in series [2] is “the greater the inhibition of cytochrome P450 CYP19”. The “inhibition of pig cytochrome P450 CYP19 (133Met) (concentration vs absorbance at 450 nm)” value in series [3] is “the greater the inhibition of pig cytochrome P450 CYP19”.
For the molecule `Nc1ccc(S(=O)(=O)Nc2ccnn2-c2ccccc2)cc1` [sulfaphenazole], the “inhibition of human cytochrome P450 CYP2C9 (359Ile) (concentration vs absorbance at 450 nm)” value in series [4] (30 μM dibenzylfluorescein, 0-1.2 μM final concentration, FIG. 19) is “the greater the inhibition of the two types of human cytochrome P450 CYP2C9”. Also, the “difference between inhibition-dose curves of the two enzyme preparations” value in series [4] (human CYP2C9 (359Ile) versus (359Leu), FIGS. 19 and 20) was “obvious differences between the sulfaphenazole inhibition-dose curves”. Also, in series [5], the “inhibition of human cytochrome P450 CYP2C9 (359Leu) (concentration vs absorbance at 450 nm)” value is on record as “the greater the inhibition of the two types of human cytochrome P450 CYP2C9”.
As to `O=c1c(-c2ccc(O)cc2)coc2cc(O)cc(O)c12` [genistein], the “inhibition of 17β-hydroxysteroid dehydrogenase (relationship between solution concentration and absorbance at 450 nm)” value in series [6] is recorded as “the stronger the inhibition of 17β-hydroxysteroid dehydrogenase”.
